Each structure is given as a SMILES string. Like-named read-outs stand apart in the source and are kept apart here.

Experiment [1] addresses T1, recombinant human LTA4 hydrolase (rhLTA4H) (Homo sapiens, UniProt P09960).
T1 construct: made in house; host or cells: Spodoptera frugiperda (Sf-9) cells, recombinant baculovirus (pFastBac1)
T1 sequence (P09960 1-611): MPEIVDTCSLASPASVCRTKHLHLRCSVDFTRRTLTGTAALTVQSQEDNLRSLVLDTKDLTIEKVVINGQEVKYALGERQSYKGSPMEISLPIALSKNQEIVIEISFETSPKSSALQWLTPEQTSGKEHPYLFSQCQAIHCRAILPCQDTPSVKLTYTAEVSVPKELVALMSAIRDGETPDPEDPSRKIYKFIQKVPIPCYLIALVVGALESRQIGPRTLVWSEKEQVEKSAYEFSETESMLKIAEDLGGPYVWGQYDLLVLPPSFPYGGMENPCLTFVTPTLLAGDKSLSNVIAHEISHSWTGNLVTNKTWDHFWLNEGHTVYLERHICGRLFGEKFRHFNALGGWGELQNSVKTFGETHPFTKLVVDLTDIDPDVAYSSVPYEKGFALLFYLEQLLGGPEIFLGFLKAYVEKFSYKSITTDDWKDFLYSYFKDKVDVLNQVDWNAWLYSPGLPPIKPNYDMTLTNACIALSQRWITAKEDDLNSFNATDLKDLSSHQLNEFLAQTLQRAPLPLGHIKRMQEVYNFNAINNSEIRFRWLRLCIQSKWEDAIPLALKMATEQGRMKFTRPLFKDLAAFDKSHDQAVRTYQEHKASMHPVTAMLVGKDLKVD
Description: Recombinant human LTA4 hydrolase assay for LTA4 hydrolase inhibitor activity. Type of experiment: biochemical. The following applies: rhLTA4H, LTA4 substrate, LTB4 by immunoassay; single determination or average; read-out: IC50. The method in brief: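 Recombinant human LTA4H from baculovirus-infected Sf-9 cells (10 ng) pre-incubated 10 min at rt with compound (10% DMSO in dilutions), then reacted with free-acid LTA4 for 30 min at rt. LTB4 measured by ELISA; IC50 by nonlinear regression. Values are single determinations or averages.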

Experiment [2] concerns LTB4 production by calcium ionophore-stimulated murine blood. Description: LTB4 production by calcium ionophore-stimulated murine blood for LTA4H inhibitor activity. The following applies: murine blood diluted 1 in 15, calcium ionophore A23187, LTB4 by immunoassay, read-out: IC50. Type of experiment: cell-based, CD-1 mice. The method in brief: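 Heparinized CD-1 mouse blood pre-incubated with compound 15 min at 37° C, then stimulated with calcium ionophore A23187 (7 μg/mL final) for 30 min. LTB4 in supernatant measured by enzyme immunoassay; values are single or averaged determinations, with SD for n≥3.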

Broadly, the IC50 is the point on the concentration scale where inhibition reaches its midpoint. On to `CC(=O)N1C[C@H]2CC[C@@H](C1)N2Cc1ccc(Oc2nc3ncccc3s2)cc1` [Example 107, meso-2-(4-{[3-Acetyl-3,8-diazabicyclo[3.2.1]oct-8-yl]methyl}phenoxy)[1,3]thiazolo[4,5-b]pyridine], for which the IC50 stood at 4 nM in experiment [1] and 3000 nM in experiment [2] (Mus musculus).

Regarding `NC(=O)N1[C@@H]2CC[C@H]1CN(CCOc1ccc(Oc3nc4ncccc4s3)cc1)C2` [Example 149, meso-3-{2-[4-([1,3]Thiazolo[4,5-b]pyridin-2-yloxy)phenoxy]ethyl}-3,8-diazabicyclo[3.2.1]octane-8-carboxamide], the IC50 in experiment [1] came to 63 nM; in experiment [2] (Mus musculus), 180 nM.

Consider `NC(=O)N1CC2CN(CCc3ccc(Oc4nc5ncccc5s4)cc3)CC2C1` (stereo not drawn) [Example 74, 5-{2-[4-([1,3]Thiazolo[4,5-b]pyridin-2-yloxy)Phenyl]ethyl}hexahydropyrrolo[3,4-c]pyrrole-2(1H)-carboxamide], for which the IC50 amounted to 6.5 nM in experiment [1] and 230 nM in experiment [2] (Mus musculus).

As for `OC1(c2ccc(Cl)cc2)CCN(Cc2ccc(Oc3nc4ncccc4s3)cc2)CC1` [Example 104, 4-(4-Chlorophenyl)-1-[4-([1,3]thiazolo[4,5-b]pyridin-2-yloxy)benzyl]piperidin-4-ol], the results for the IC50 in experiment [1] and in experiment [2] (Mus musculus) were 1.9 nM and 28 nM, respectively.

With `NC(=O)N1C[C@H]2CC[C@@H](C1)N2Cc1ccc(Oc2nc3ncccc3s2)cc1` [Example 117, meso-8-[4-([1,3]Thiazolo[4,5-b]pyridin-2-yloxy)benzyl]-3,8-diazabicyclo[3.2.1]octane-3-carboxamide], the IC50 came to 9 nM in experiment [1] and 18 nM in experiment [2] (Mus musculus).

With `NC(=O)N[C@@H]1C[C@H]2CC[C@@H](C1)N2Cc1ccc(Oc2nc3ncccc3s2)cc1` [Example 110, meso-1-{(3-exo)-8-[4-([1,3]Thiazolo[4,5-b]pyridin-2-yloxy)benzyl]-8-azabicyclo[3.2.1]oct-3-yl}urea], the results for the IC50 in experiment [1] and in experiment [2] (Mus musculus) were 1 nM and 1440 nM, respectively.

Turning to `NC(=O)N1C[C@H]2CC[C@@H](C1)N2CCc1ccc(Oc2nc3cccnc3s2)cc1` [Example 71, meso-8-{2-[4-([1,3]Thiazolo[5,4-b]pyridin-2-yloxy)phenyl]ethyl}-3,8-diazabicyclo[3.2.1]octane-3-carboxamide], the IC50 in experiment [1] worked out at 81 nM; in experiment [2] (Mus musculus) it was 280 nM.

`NC(=O)C1CCN(Cc2ccc(Oc3nc4ncc(Cl)cc4s3)cc2)CC1` [Example 284, 1-{4-[(6-Chloro[1,3]thiazolo[4,5-b]pyridin-2-yl)oxy]benzyl}piperidine-4-carboxamide]: the figures for the IC50 in experiment [1] and in experiment [2] (Mus musculus) were 89 nM and 640 nM, respectively.

In the case of `CC(=O)N1C[C@@H]2C[C@H]1CN2Cc1ccc(Oc2nc3nccc(C)c3s2)cc1` [Example 125, 2-(4-{[(1S,4S)-5-Acetyl-2,5-diazabicyclo[2.2.1]hept-2-yl]methyl}phenoxy)-7-methyl[1,3]thiazolo[4,5-b]pyridine], the IC50 in experiment [1] stood at 12 nM; in experiment [2] (Mus musculus), 19 nM.

For the molecule `NC(=O)N1CC2CN(Cc3ccc(Oc4nc5ncccc5s4)cc3)CC2C1` (stereo not drawn) [Example 277, 5-[4-([1,3]Thiazolo[4,5-b]pyridin-2-yloxy)benzyl]hexahydropyrrolo[3,4-c]pyrrole-2(1H)-carboxamide], the IC50 in experiment [1] is 7 nM; in experiment [2] (Mus musculus) it was 900 nM.

As for `CC1CCN(Cc2ccc(Oc3nc4ncccc4s3)cc2)CC1` [Example 97, 2-{4-[(4-Methylpiperidin-1-yl)methyl]phenoxy}[1,3]thiazolo[4,5-b]pyridine], the IC50 in experiment [1] was 1 nM; in experiment [2] (Mus musculus) it was 13 nM.

Consider `CC(=O)N[C@H]1C[C@H]2CC[C@@H](C1)N2Cc1ccc(Oc2nc3cnccc3s2)cc1` [Example 134, meso-N-{(3-endo)-8-[4-([1,3]Thiazolo[4,5-c]pyridin-2-yloxy)benzyl]-8-azabicyclo[3.2.1]oct-3-yl}acetamide], for which the IC50 in experiment [1] was 38 nM; in experiment [2] (Mus musculus), 180 nM.

Regarding `Cc1ccnc2nc(Oc3ccc(OCCN4CC5CN(C(=O)C6CCC6)CC5C4)cc3)sc12` (stereo not drawn) [Example 146, 2-(4-{2-[5-(Cyclobutylcarbonyl)hexahydropyrrolo[3,4-c]pyrrol-2(1H)-yl]ethoxy}phenoxy)-7-methyl[1,3]thiazolo[4,5-b]pyridine], the IC50 is 97 nM in experiment [1] and 450 nM in experiment [2] (Mus musculus).

`NC(=O)N1CC2CN(CCOc3ccc(Oc4nc5ncccc5s4)cc3)CC2C1` (stereo not drawn) [Example 19, 5-{2-[4-([1,3]Thiazolo[4,5-b]pyridin-2-yloxy)phenoxy]ethyl}hexahydropyrrolo[3,4-c]pyrrole-2(1H)-carboxamide]: the IC50 in experiment [1] came to 17 nM; in experiment [2] (Mus musculus), 340 nM.

Regarding `c1ccc(OC2CCN(Cc3ccc(Oc4nc5ncccc5s4)cc3)CC2)cc1` [Example 260, 2-{4-[(4-Phenoxypiperidin-1-yl)methyl]phenoxy}[1,3]thiazolo[4,5-b]pyridine], the IC50 in experiment [1] came out at 8 nM; in experiment [2] (Mus musculus), 43 nM.

With `CC(=O)N1C2CCC1CN(Cc1ccc(Oc3nc4ncccc4s3)cc1)C2` [Example 185, meso-2-[(4-{[8-Acetyl-3,8-diazabicyclo[3.2.1]oct-3-yl]methyl}phenyl)oxy][1,3]thiazolo[4,5-b]pyridine], the IC50 came to 7 nM in experiment [1] and 850 nM in experiment [2].

As for `CCOC(=O)C1CCN(Cc2ccc(Oc3nc4ncccc4s3)cc2)CC1` [Example 130, Ethyl 1-[4-([1,3]thiazolo[4,5-b]pyridin-2-yloxy)benzyl]piperidine-4-carboxylate], the IC50 in experiment [1] was determined as 2.5 nM; in experiment [2] (Mus musculus), 110 nM.

Regarding `OC1(c2ccccn2)CCN(CCOc2ccc(Oc3nc4ncccc4s3)cc2)CC1` [Example 5, 4-Pyridin-2-yl-1-{2-[4-([1,3]thiazolo[4,5-b]pyridin-2-yloxy)phenoxy]ethyl}piperidin-4-ol], the IC50 was 14 nM in experiment [1] and 140 nM in experiment [2] (Mus musculus).

In the case of `OCC1CCN(Cc2ccc(Oc3nc4ncccc4s3)cc2)CC1` [Example 95, {1-[4-([1,3]Thiazolo[4,5-b]pyridin-2-yloxy)benzyl]piperidin-4-yl}methanol], the figures for the IC50 in experiment [1] and in experiment [2] (Mus musculus) were 11 nM and 29 nM, respectively.

As to `CC(=O)N[C@H]1C[C@H]2CC[C@@H](C1)N2Cc1ccc(Oc2nc3cccnc3s2)cc1` [Example 119, meso-N-{(3-endo)-8-[4-([1,3]Thiazolo[5,4-b]pyridin-2-yloxy)benzyl]-8-azabicyclo[3.2.1]oct-3-yl}acetamide], the IC50 turned out to be 70 nM in experiment [1] and 770 nM in experiment [2] (Mus musculus).

Take `c1cnc2nc(Oc3ccc(OCCN4CCC(c5ccncc5)CC4)cc3)sc2c1` [Example 29, 2-{4-[2-(4-Pyridin-4-ylpiperidin-1-yl)ethoxy]phenoxy}[1,3]thiazolo[4,5-b]pyridine]: the figures for the IC50 in experiment [1] and in experiment [2] (Mus musculus) were 13 nM and 180 nM, respectively.

For the molecule `NC(=O)N[C@H]1C[C@H]2CC[C@@H](C1)N2CCc1ccc(Oc2nc3cccnc3s2)cc1` [Example 72, meso-1-[(3-endo)-8-{2-[4-([1,3]Thiazolo[5,4-b]pyridin-2-yloxy)phenyl]ethyl}-8-azabicyclo[3.2.1]oct-3-yl]urea], the results for the half-maximal inhibitory concentration (IC50) in experiment [1] and in experiment [2] (Mus musculus) were 47 nM and 1040 nM, respectively.

Turning to `NC(=O)N1C[C@H]2C[C@@H]1CN2CCOc1ccc(Oc2nc3ncccc3s2)cc1` [Example 268, (1R,4R)-5-{2-[4-([1,3]Thiazolo[4,5-b]pyridin-2-yloxy)phenoxy]ethyl}-2,5-diazabicyclo[2.2.1]heptane-2-carboxamide], the IC50 in experiment [1] was 32 nM; in experiment [2] (Mus musculus), 91 nM.

As for `OC1(c2ccc(Cl)cc2)CCN(CCOc2ccc(Oc3nc4ncccc4s3)cc2)CC1` [Example 30, 4-(4-Chlorophenyl)-1-{2-[4-([1,3]thiazolo[4,5-b]pyridin-2-yloxy)phenoxy]ethyl}piperidin-4-ol], the IC50 in experiment [1] worked out at 30 nM; in experiment [2] (Mus musculus), 150 nM.

For the molecule `c1ccc(OC2CCN(Cc3ccc(Oc4nc5ncccc5s4)cc3)CC2)nc1` [Example 261, 2-(4-{[4-(Pyridin-2-yloxy)piperidin-1-yl]methyl}phenoxy)[1,3]thiazolo[4,5-b]pyridine], the IC50 in experiment [1] was 7 nM; in experiment [2] (Mus musculus), 38 nM.

Consider `OC1(c2ccc(Cl)cc2)CCN(CCc2ccc(Oc3nc4ncccc4s3)cc2)CC1` [Example 47, 4-(4-Chlorophenyl)-1-{2-[4-([1,3]thiazolo[4,5-b]pyridin-2-yloxy)phenyl]ethyl}piperidin-4-ol], for which the results for the IC50 in experiment [1] and in experiment [2] (Mus musculus) were 34 nM and 210 nM, respectively.

As to `c1ccc(SC2CCN(CCOc3ccc(Oc4nc5ncccc5s4)cc3)CC2)nc1` [Example 291, 2-(4-{2-[4-(Pyridin-2-ylsulfanyl)piperidin-1-yl]ethoxy}phenoxy)[1,3]thiazolo[4,5-b]pyridine], the values for the IC50 in experiment [1] and in experiment [2] (Mus musculus) were 82 nM and 280 nM, respectively.
